Test results: PubChem BioAssay (NCI)
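Values below derive from 48-hour exposures of cells grown in 96-well plates, with endpoints linearly interpolated between the two concentrations bracketing the appropriate inhibition level. GI50 = concentration required for 50% inhibition of growth. TGI: total growth inhibition.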

What was measured:
Assay in all cases: inhibition of tumour cell growth, NCI panel, 48 h
A498 renal = system: A498 renal
MOLT-4 leukemia = system: MOLT-4 leukemia
NCI/ADR-RES ovarian = system: NCI/ADR-RES ovarian
EKVX NSCLC = system: EKVX NSCLC
T-47D breast = system: T-47D breast
OVCAR-3 ovarian = system: OVCAR-3 ovarian
PC-3 prostate = system: PC-3 prostate
SNB-19 CNS = system: SNB-19 CNS
HCT-116 colon = system: HCT-116 colon
UACC-62 melanoma = system: UACC-62 melanoma

In the case of Cc1ccc(N(CC(=O)Nc2ccc(S(=O)(=O)N3CCC(N4CCCC4)CC3)cc2)S(=O)(=O)c2ccc(Cl)cc2)cc1, the GI50 (A498 renal) is reported as 1440 nM, the TGI (A498 renal) is reported as 2.84 µM and the GI50 (MOLT-4 leukemia) is reported as 1870 nM. For the same compound, the TGI (MOLT-4 leukemia) was 4.98 µM, the GI50 (NCI/ADR-RES ovarian) was 1930 nM and the TGI (NCI/ADR-RES ovarian) was 4.05 µM. It also gave a GI50 (EKVX NSCLC) of 1690 nM, a TGI (EKVX NSCLC) of 3.82 µM and a GI50 (T-47D breast) of 1740 nM. The TGI (T-47D breast) was 3.91 µM, the GI50 (OVCAR-3 ovarian) was 1770 nM and the TGI (OVCAR-3 ovarian) was 3.49 µM. It also gave a GI50 (PC-3 prostate) of 1880 nM and a TGI (PC-3 prostate) of 4.05 µM.

Compound O=C1Nc2ccc(Cl)cc2/C1=C\c1c(Cl)nc2sccn12 has a TGI (A498 renal) of 8.66 µM, a TGI (MOLT-4 leukemia) of 51.9 µM and a TGI (NCI/ADR-RES ovarian) of 17.6 µM. The TGI (SNB-19 CNS) was over 100 µM, the TGI (T-47D breast) was over 100 µM and the TGI (OVCAR-3 ovarian) was 12.4 µM. The TGI (PC-3 prostate) was over 100 µM and the TGI (HCT-116 colon) was 34 µM.

For C[N+]1(CCCl)CC[N+](C)(CCCl)CC1 (stereo not drawn), the TGI (A498 renal) was over 100 µM, the TGI (MOLT-4 leukemia) was over 100 µM and the TGI (NCI/ADR-RES ovarian) was over 100 µM. It also gave a TGI (EKVX NSCLC) of over 100 µM, a TGI (SNB-19 CNS) of over 100 µM and a TGI (UACC-62 melanoma) of over 100 µM. For the same compound, the TGI (T-47D breast) was over 100 µM, the TGI (OVCAR-3 ovarian) was over 100 µM and the TGI (PC-3 prostate) was over 100 µM. The TGI (HCT-116 colon) was over 100 µM.

CCOC(=O)CC1(c2cccc3ccccc23)OC(=O)c2ccccc21 (stereo not drawn) gave a TGI (A498 renal) of over 100 µM, a TGI (MOLT-4 leukemia) of 82.4 µM and a TGI (EKVX NSCLC) of over 100 µM. The TGI (SNB-19 CNS) was over 100 µM, the TGI (UACC-62 melanoma) was over 100 µM and the TGI (OVCAR-3 ovarian) was over 100 µM.

O=C(Nc1ccc(-n2ccc3c(NC(=O)c4ccccc4)ncnc32)cc1)Nc1cccc(Cl)c1Cl was tested, and the GI50 (A498 renal) was 752 nM, the TGI (A498 renal) was 2.04 µM and the GI50 (MOLT-4 leukemia) was 1710 nM. It also gave a TGI (MOLT-4 leukemia) of over 50 µM, a GI50 (NCI/ADR-RES ovarian) of 1580 nM and a TGI (NCI/ADR-RES ovarian) of 7.29 µM. It also gave a GI50 (EKVX NSCLC) of 1300 nM, a TGI (EKVX NSCLC) of 4.59 µM and a GI50 (SNB-19 CNS) of 1440 nM. The TGI (SNB-19 CNS) was 5.84 µM, the GI50 (UACC-62 melanoma) was 1020 nM and the TGI (UACC-62 melanoma) was 3.29 µM. For the same compound, the GI50 (T-47D breast) was 2170 nM, the TGI (T-47D breast) was 9.22 µM and the GI50 (OVCAR-3 ovarian) was 1190 nM. For the same compound, the TGI (OVCAR-3 ovarian) was 2.75 µM, the GI50 (PC-3 prostate) was 582 nM and the TGI (PC-3 prostate) was 1.57 µM. The GI50 (HCT-116 colon) was 673 nM and the TGI (HCT-116 colon) was 2.38 µM.

Compound O=C(O)CC1NCc2cc3ccccc3nc21 (stereo not drawn) has a TGI (A498 renal) of over 100 µM, a TGI (MOLT-4 leukemia) of over 100 µM and a TGI (NCI/ADR-RES ovarian) of over 100 µM. For the same compound, the TGI (EKVX NSCLC) was over 100 µM, the TGI (SNB-19 CNS) was over 100 µM and the TGI (UACC-62 melanoma) was over 100 µM. For the same compound, the TGI (T-47D breast) was over 100 µM, the TGI (OVCAR-3 ovarian) was over 100 µM and the TGI (PC-3 prostate) was over 100 µM. It also gave a TGI (HCT-116 colon) of over 100 µM.

Work on O=C(O)/C(Cc1ccc([N+](=O)[O-])cc1)=N\O yielded a TGI (A498 renal) of over 100 µM, a TGI (NCI/ADR-RES ovarian) of over 100 µM and a TGI (EKVX NSCLC) of over 100 µM. It also gave a TGI (SNB-19 CNS) of over 100 µM, a TGI (UACC-62 melanoma) of over 100 µM and a TGI (T-47D breast) of over 100 µM. For the same compound, the TGI (OVCAR-3 ovarian) was over 100 µM, the TGI (PC-3 prostate) was over 100 µM and the TGI (HCT-116 colon) was over 100 µM.

For CC(=O)NC1=C[C@@H]([C@H]2COC(C)(C)O2)OC1=O, the TGI (A498 renal) was over 100 µM, the TGI (MOLT-4 leukemia) was over 100 µM and the TGI (NCI/ADR-RES ovarian) was over 100 µM. The TGI (EKVX NSCLC) was over 100 µM, the TGI (SNB-19 CNS) was over 100 µM and the TGI (UACC-62 melanoma) was over 100 µM. For the same compound, the TGI (OVCAR-3 ovarian) was over 100 µM and the TGI (HCT-116 colon) was over 100 µM.

Compound CC(C)C(N)=O has a TGI (MOLT-4 leukemia) of over 5000 µM, a TGI (UACC-62 melanoma) of over 5000 µM and a TGI (HCT-116 colon) of over 5000 µM.

Work on C=C(OC1C(C)=C2C(C1OC(=O)CCCCCCC)C(C)(OC(C)=O)CC(OC(=O)CCC)C1(O)C2OC(=O)C1(C)O)/C(C)=C/C (stereo not drawn) yielded a TGI (A498 renal) of 3.29 µM, a GI50 (MOLT-4 leukemia) of 0.402 nM and a TGI (MOLT-4 leukemia) of 0.177 µM. The TGI (NCI/ADR-RES ovarian) was 6.51 µM, the GI50 (EKVX NSCLC) was under 0.1 nM and the TGI (EKVX NSCLC) was 0.896 µM. It also gave a TGI (SNB-19 CNS) of 3.16 µM, a TGI (UACC-62 melanoma) of 0.0273 µM and a GI50 (OVCAR-3 ovarian) of under 0.1 nM. It also gave a GI50 (HCT-116 colon) of under 0.1 nM and a TGI (HCT-116 colon) of 0.000151 µM.

CCCCCCCCCCCCOCCCOP(=O)([O-])OCC[N+](C)(C)C gave a TGI (A498 renal) of 83.6 µM, a TGI (MOLT-4 leukemia) of 65.1 µM and a TGI (NCI/ADR-RES ovarian) of over 100 µM. For the same compound, the TGI (EKVX NSCLC) was over 100 µM, the TGI (SNB-19 CNS) was 46.9 µM and the TGI (UACC-62 melanoma) was over 83.9 µM. It also gave a TGI (T-47D breast) of 38 µM, a TGI (OVCAR-3 ovarian) of over 100 µM and a TGI (PC-3 prostate) of 9.73 µM. It also gave a TGI (HCT-116 colon) of over 86.8 µM.

Compound COC(=O)c1cnc(Cl)cn1 has a TGI (MOLT-4 leukemia) of over 100 µM, a TGI (NCI/ADR-RES ovarian) of over 100 µM and a TGI (EKVX NSCLC) of over 100 µM. It also gave a TGI (SNB-19 CNS) of over 100 µM, a TGI (UACC-62 melanoma) of over 100 µM and a TGI (T-47D breast) of over 100 µM. The TGI (PC-3 prostate) was over 100 µM and the TGI (HCT-116 colon) was over 100 µM.

Nc1nc(N)c2cc(NCc3ccc(Cl)c(Cl)c3)ccc2n1 was tested, and the GI50 (A498 renal) was 1160 nM, the TGI (A498 renal) was 2.41 µM and the GI50 (NCI/ADR-RES ovarian) was 2880 nM. It also gave a TGI (NCI/ADR-RES ovarian) of 16.6 µM, a GI50 (SNB-19 CNS) of 1460 nM and a TGI (SNB-19 CNS) of 2.78 µM. The GI50 (UACC-62 melanoma) was 1390 nM, the TGI (UACC-62 melanoma) was 2.7 µM and the GI50 (T-47D breast) was 1720 nM. For the same compound, the TGI (T-47D breast) was 3.28 µM, the GI50 (OVCAR-3 ovarian) was 1030 nM and the TGI (OVCAR-3 ovarian) was 2.24 µM. For the same compound, the GI50 (PC-3 prostate) was 623 nM, the TGI (PC-3 prostate) was 1.96 µM and the GI50 (HCT-116 colon) was 391 nM. It also gave a TGI (HCT-116 colon) of 1.58 µM.
